Converted amounts (≈) assume the structure as drawn.
Experiments:
Botrytis cinerea = test: Gas-phase bioassay in hermetically sealed vials, growth inhibition of the fungus Botrytis cinerea; assay type: cell-based; details: compound in the gas phase; for IC50: read-out: IC50 (50% inhibiting concentration)
Method: (§1) The antifungal and antibacterial activity of the VOC obtained in Example 1 was tested by bioassay in hermetically sealed vials in which the microorganism was cultured while being exposed to the compound under test in the gas phase at different concentrations. […] The IC50 (50% inhibiting concentration), the MIC (minimum inhibiting concentration) and the MLC (minimum lethal concentration) were calculated.

Erwinia carotovora = test: Gas-phase bioassay in hermetically sealed vials, growth inhibition of the bacterium Erwinia carotovora; assay type: cell-based; details: compound in the gas phase; for IC50: Pectobacterium carotovorum, read-out: IC50 (50% inhibiting concentration)
Method: as §1

Compound | MIC (minimum inhibiting concentration) (Botrytis cinerea) [mg/Lair] | MLC (minimum lethal concentration) (Botrytis cinerea) [mg/Lair] | IC50 (Botrytis cinerea) [µg/mL] | IC50 (Erwinia carotovora) [µg/mL] | MIC (minimum inhibiting concentration) (Erwinia carotovora) [mg/Lair] | MLC (minimum lethal concentration) (Erwinia carotovora) [mg/Lair]
CCCCCCO [hexanol] | 20 | 40 | 15 (≈ 147 µM) | 150 (≈ 1470 µM) | >150 | >150
CCCCC(CC)CO (stereo not drawn) [2-ethyl-1-hexanol] | 5 | 10 | 4 (≈ 30.7 µM) | 15 (≈ 115 µM) | 50 | 75
CC1(C)[C@@H]2CC[C@@]1(C)[C@H](O)C2 (racemic) [isoborneol] | 40 | 40 | 5 (≈ 32.4 µM) | > 150 | >150 | >150

Source: patent US20130345051A1, “FUNGICIDAL AND BACTERICIDAL COMPOSITION THAT COMPRISES VOLATILE ORGANIC COMPOUNDS OF NATURAL ORIGIN” (BIOFUNGITEK, SOCIEDAD LIMITADA, priority 2011, published 2013)
